In patent publication US10603298B2, “Succinate dehydrogenase inhibitors (SDHi's)” (Medical Research Council, priority 2014, dated 2020):
“Also recorded” adds a separate entry of the source.

Key:
[1] = system: mouse heart IR injury (myocardial infarction); assay: In vivo mouse cardiac IR injury (LAD ligation), infarct size by triphenyltetrazolium chloride staining; details: dimethyl succinate 8 mg/kg/min infused in combination with dimethyl malonate
Protocol: For the in vivo heart IR model an open-chest, in situ heart model was used^31,32. Male mice (8-10 weeks; Charles River Laboratories, UK) were anaesthetised with sodium pentobarbital (70 mg/kg intraperitoneally (i.p.)), intubated endotracheally and ventilated with 3 cm H2O positive-end expiratory pressure. Adequacy of anaesthesia was monitored using corneal and withdrawal reflexes. Ventilation frequency was kept at 110 breaths per minute with tidal volume between 125-150 μL. A thoracotomy was performed and the heart exposed by stripping the pericardium. A prominent branch of the left anterior descending coronary artery (LAD) was surrounded by a 7-0 Prolene suture that was then passed through a small plastic tube. Ischaemia was induced by tightening the tubing against the heart surface. To assess metabolites during IR in vivo, mice were divided into three groups: 30 min ischaemia, 30 min ischaemia plus 5 min reperfusion and 30 min sham-operation in which the suture was placed but the LAD was not occluded. At the end of each protocol tissue was removed from the at risk and peripheral areas of the heart, selected visually by comparing white versus red tissue, and snap-frozen in liquid nitrogen. […] Infarct size was assessed after 30 min of ischaemia followed by 120 min reperfusion using 2% triphenyltetrazolium chloride staining and is expressed as a percentage of the risk zone^33. […]

[2] = system: adult primary rat cardiomyocytes; assay: ROS production (DHE oxidation) in adult primary cardiomyocytes during in situ IR; assay type: cell-based; details: 40 min ischaemia then reoxygenation, 4 mM in ischaemic buffer
Protocol: FIG. 13: Tracking cardiomyocytes ROS levels in primary cardiomyocytes during in situ IR. Primary rat cardiomyocytes were subjected to 40 min ischaemia and reoxygenation with ROS levels tracked throughout the experiment by ratiometric measurement of dihydroethidium (DHE) oxidation. […] Representative traces of each condition are shown. The highlighted window indicates the period of the experiment expanded in detail in FIG. 3.a.
(§1) Male Sprague-Dawley rats (300-370 g) were terminally anaesthetised via IP injections of 200 mg/kg sodium pentobarbitone and 330 U/kg heparin. Hearts were excised and retrograde perfused on a Langendorff-perfusion system with 13 mL/min oxygenated KH buffer at 37° C. Cells were isolated by collagenase digestion using standard methods^41. […]
(§2) Cells were imaged within 36 hours of plating. […] Simulated ischaemia was achieved by replacing the buffer with a pre-gassed, hypoxic recording buffer simulating ischaemia (as above but lacking glucose and containing 10 mM sodium lactate, 14.8 mM KCl; pH 6.4) and by covering the heated stage with a transparent, gas-impermeant lid, forming a small chamber into which argon was forced to maintain hypoxia. pO2 was routinely measured as <2.0 mm Hg during simulated ischaemia. […]
(§3) ROS production was estimated by oxidation of DHE. […] All measured cell parameters were analysed with Fiji image processing software.

C2C12 myoblasts = assay: Succinate-dependent mitochondrial superoxide production (MitoSOX) in myoblasts; assay type: cell-based, mouse; details: C2C12 cells, normoxic, mitochondria hyperpolarised with oligomycin
Protocol: C2C12 myoblasts were seeded in 35 mm glass bottom culture dishes (MatTek) and incubated for 24 h in low glucose (1 g/L) DMEM. 2 h prior to imaging DMEM was removed, and replaced with imaging buffer (132 mM NaCl; […]; 4.2 mM KCl; 1 mM MgCl2 1 mM CaCl2 adjusted to pH 7.4 with Tris base and supplemented with 2-deoxyglucose (25 μM), and sodium pyruvate (10 mg/L or 4 μM oligomycin as indicated). Myoblasts were pre-incubated with 2 μM MitoSOX for 15 min prior to imaging. MitoSOX fluorescence was monitored using a Nikon Eclipse Ti confocal microscope at 37° C. on a temperature controlled stage for 30 min. MitoSOX was excited at 510 nm and the emitted signal collected with a LP 560 filter following the indicated additions.

[3] = system: adult primary rat cardiomyocytes; assay: NAD(P)H autofluorescence in primary cardiomyocytes during in situ IR; assay type: cell-based; details: 4 mM in ischaemic buffer
Protocol: FIG. 14: Tracking NADH reduction state in primary cardiomyocytes during in situ IR. Primary rat cardiomyocytes were subjected to 40 min ischaemia and reoxygenation and NADH reduction state was tracked throughout the experiment by measurement of NAD(P)H autofluorescence. […] Representative traces of each condition are shown. The highlighted window indicates the period of the experiment expanded in detail in FIG. 3c.
as §1, §2, §3

COC(=O)CCC(=O)OC [dimethyl succinate]
cardioprotection by dimethyl malonate after adding back dimethyl succinate [1]: cardioprotection was suppressed
ROS production / DHE oxidation upon reperfusion [2]: significantly increased mitochondrial ROS production during reperfusion; also recorded: amplified reperfusion DHE oxidation
MitoSOX oxidation (C2C12 myoblasts): increased MitoSOX oxidation
NAD(P)H oxidation at reperfusion [3]: suppressed
